{"source": "patent US20190151390A1", "about": "“PERILLA EXTRACT COMPOSITION” (INQPHARM GROUP SDN BHD, priority 2016, published 2019)", "test_system": "HMC-1 cells", "experiment": "Mast cell test: histamine release from IgE/anti-IgE stimulated HMC-1 cells, ELISA of supernatant", "assay_type": "cell-based", "conditions": "for Histamine reduction (%): compared to respective vehicle control; for Histamine (ng/ml) mean ± SD (n = 3): HMC-1 cells, supernatant ELISA", "method": "Mast cell lines, i.e. HMC1 cells (provided by Dr Joseph H. Butterfield; Mayo Clinic, Rochester, Minn., USA), were cultured in Isocove's Modified Dulbecco's Medium (IMDM) containing 10% Fetal Bovine Seum (FBS), 2 mM L-glutamine, 50 μM 2-mercaptoethanol, 100 U/mL penicillin and 100 μg/mL streptomycin. Cells were maintained at 37° C. in 5% CO2 in a humidified atmosphere. Percentage of living cells was determined by trypan blue staining. A 1:10 dilution with 50 μl cell suspension and 450 μl trypan blue was prepared and the number of living and dead cells was counted in a hemocytometer. 10^6 living cells were transferred into safe-lock Eppendorf tubes. Cell suspensions were centrifuged (200 g, 5 min) and supernatant was discarded. The effect of perilla oil, sesame oil and a combination of perilla oil and sesame oil (1:1 ratio) in the vehicle Kolliphor ELP (polyoxyl-35 hydrogenated castor oil) was determined. The positive control Cromolyn in phosphate buffer saline (PBS), the vehicles PBS and ELP were also tested as controls. After adding 100 μl IgE (100 ng/ml in PBS or ELP) to the cell pellets, cells were incubated for 12 hours over night, at 37° C. Cells were then incubated for 2 hours, at 37° C. with two different concentrations of compounds, i.e. 250 μg/ml and 500 μg/ml. After centrifugation (200 g, 5 min) supernatant was discarded and cell pellet was again incubated for 1 hour, at 37° C. with 100 μl anti-IgE (1 μg/ml in PBS or ELP). For the final incubation time of 6 hours, at 37° C., 300 μl HMC1 media was added. Cells were again centrifuged (200 g, 5 min) and supernatant was collected and stored as 300 μl aliquots at −20° C. for ELISA measurements. Cell pellets were resuspended in 100 μl HMC1 media for determining cell viability. The concentration of histamine in the collected supernatant was determined by ELISA, using a kit obtained from IBL International according to the manufacturer's guidelines. Each sample was measured twice. Due to expected measuring limits, vehicle (PBS, ELP) treated samples were diluted 1:2. Statistical analysis was performed with GraphPad Prism (Version 5.01) software (GraphPad Software Inc., San Diego, Calif., USA) using the unpaired two-tailed Students t test. A P value of less than 0.05 was considered statistically significant."}
{"smiles": "O=C(O)c1cc(=O)c2c(OCC(O)COc3cccc4oc(C(=O)O)cc(=O)c34)cccc2o1", "note": "[Cromolyn]", "values": [{"measurement": "Histamine reduction (%) compared to averaged histamine release of perilla oil and sesame oil", "setting": "250 μg/ml", "value": 8.41, "unit": "%"}, {"measurement": "Histamine reduction (%)", "setting": "250 μg/ml", "value": 57.61, "unit": "%"}, {"measurement": "Histamine reduction (%) compared to averaged histamine release of perilla oil and sesame oil", "setting": "500 μg/ml", "value": 6.75, "unit": "%"}, {"measurement": "Histamine reduction (%)", "setting": "500 μg/ml", "value": 55.28, "unit": "%"}, {"measurement": "Histamine (ng/ml) mean ± SD (n = 3)", "setting": "250 μg/ml", "value": "121.05 ± 0.73", "unit": "ng/mL"}, {"measurement": "Histamine (ng/ml) mean ± SD (n = 3)", "setting": "500 μg/ml", "value": "127.70 ± 13.32", "unit": "ng/mL"}, {"measurement": "Increase of percentage of histamine reduction compared to treatment with individual compounds", "setting": "range over 250 and 500 μg/ml", "value": "6.8-8.4%"}]}
